Results taken from PMC7419507, “In vitro Cas9-assisted editing of modular polyketide synthase genes to produce desired natural product derivatives” (Nature Communications, 2020).
pEC50: −log10 of the molar value. Where “and” joins values, the source holds several entries; their conditions need not be identical. Equal values may be shown once.

Tests used:
FKBP12 and mTOR = target: T1, FKBP12 and mTOR (Homo sapiens, UniProt P42345+P62942); assay: Fluoppi analysis: induction of FKBP12-mTOR complex formation in transfected HeLa cells; format: cell-based; conditions: for Foci intensity: raw data, one replicate per line
T1 construct: host or cells: HeLa cells
T1 sequence (P42345 2025-2114 limits assumed): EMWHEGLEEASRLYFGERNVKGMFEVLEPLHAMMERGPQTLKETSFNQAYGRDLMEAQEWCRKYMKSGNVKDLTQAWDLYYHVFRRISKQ
T1 sequence (P62942 whole entry): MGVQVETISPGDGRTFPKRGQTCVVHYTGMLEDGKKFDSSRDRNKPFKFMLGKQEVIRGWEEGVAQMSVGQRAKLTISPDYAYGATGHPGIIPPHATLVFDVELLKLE
Summary of the method: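 HeLa cells co-transfected with phAG-mTOR and pAsh-FKBP12, seeded 3000 cells/well, then compound-treated 1 h after 24 h at 37 °C. Fixed, Hoechst-stained, imaged by high-content microscopy; foci fluorescence normalized to total cell fluorescence, EC50 computed.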

[1] = Cytotoxicity assay (CellTiter-Glo, 72 h), MESO-1; format: cell-based; conditions: human, MESO-1 malignant pleural mesothelioma cells, raw replicate data, read-out: MESO1 viability (%)
Summary of the method: (§1)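 Luminescent ATP read-out (CellTiter-Glo) quantified surviving cells after a 72 h incubation with 2-fold diluted compounds in 0.5% DMSO, added 4 h post-seeding at 1000 cells/well.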

[2] = tested on: malignant pleural mesothelioma MESO-1 cells; assay: Cytotoxicity assay (CellTiter-Glo, 72 h), MESO-1; format: cell-based; conditions: raw replicate data
Summary of the method: as §1

[3] = tested on: Jurkat, SKOV-3 and MESO-1 cells; assay: Cytotoxicity assay, statements for all tested cell lines together; format: cell-based; conditions: against the tested cell lines (Jurkat, SKOV-3, MESO-1)
Summary of the method: as §1

[4] = Cytotoxicity assay (CellTiter-Glo, 72 h), SKOV-3; format: cell-based, human; conditions: human, raw replicate data, read-out: SKOV3 viability (%)
Summary of the method: as §1

[5] = tested on: human ovarian adenocarcinoma SKOV-3 cells; assay: Cytotoxicity assay (CellTiter-Glo, 72 h), SKOV-3; format: cell-based; conditions: raw replicate data
Summary of the method: as §1

- PPI-inducing (binding enhancing) activity between FKBP12 and mTOR compared with rapamycin (1), in words (FKBP12 and mTOR; Fluoppi): relatively weaker activities
- pEC50 (FKBP12 and mTOR; Fluoppi, HeLa cells, 1 h treatment, three independent biological replicates, read-out: EC50, induction of the formation of FKBP-mTOR complex): 7.35
- Foci intensity (FKBP12 and mTOR; conc 9.53674e-5 uM): 0.02068 and 0.01364 and 0.008639
- Foci intensity (FKBP12 and mTOR; conc 0.000190735 uM): 0.01744 and 0.007135 and 0.0155
- Foci intensity (FKBP12 and mTOR; conc 0.00038147 uM): 0.04148 and 0.01907 and 0.0147
- Foci intensity (FKBP12 and mTOR; conc 0.000762939 uM): 0.01977 and 0.01076 and 0.01197
- Foci intensity (FKBP12 and mTOR; conc 0.00152588 uM): 0.06388 and 0.02909 and 0.00714
- Foci intensity (FKBP12 and mTOR; conc 0.00305176 uM): 0.01847 and 0.0327 and 0.01128
- Foci intensity (FKBP12 and mTOR; conc 0.00610352 uM): 0.01966 and 0.01473 and 0.01204
- Foci intensity (FKBP12 and mTOR; conc 0.012207 uM): 0.01622 and 0.03454 and 0.02495
- Foci intensity (FKBP12 and mTOR; conc 0.0244141 uM): 0.05679 and 0.05606 and 0.04583
- Foci intensity (FKBP12 and mTOR; conc 0.0488281 uM): 0.1221 and 0.237 and 0.2378
- Foci intensity (FKBP12 and mTOR; conc 0.0976562 uM): 0.306 and 0.2748 and 0.2045
- Foci intensity (FKBP12 and mTOR; conc 0.195312 uM): 0.3211 and 0.3269 and 0.2723
- Foci intensity (FKBP12 and mTOR; conc 0.390625 uM): 0.3599 and 0.2761 and 0.3358
- Foci intensity (FKBP12 and mTOR; conc 0.78125 uM): 0.3175 and 0.3752 and 0.289
- Foci intensity (FKBP12 and mTOR; conc 1.5625 uM): 0.3697 and 0.3114 and 0.3338
- Foci intensity (FKBP12 and mTOR; conc 3.125 uM): 0.3541 and 0.2997 and 0.3309
- Foci intensity (FKBP12 and mTOR; conc 6.25 uM): 0.3255 and 0.2796 and 0.2953
- Foci intensity (FKBP12 and mTOR; conc 12.5 uM): 0.3157 and 0.354 and 0.2564
- Foci intensity (FKBP12 and mTOR; conc 25 uM): 0.3263 and 0.3214 and 0.3499
- Foci intensity (FKBP12 and mTOR; conc 50 uM): 0.3058 and 0.2791 and 0.2528
Compound: CO[C@H]1C[C@@H]2CC[C@@H](C)[C@@](O)(O2)C(=O)C(=O)N2CCCC[C@H]2C(=O)O[C@H]([C@H](C)C[C@@H]2CC[C@@H](O)[C@H](OC)C2)CC(=O)[C@H](C)/C=C(\C)[C@@H](O)CC(=O)[C@H](C)C[C@H](C)/C=C/C=C(C)/C=C/1C [Compound 2, 27-demethoxy-19-methyl rapamycin]
- viability at 72 h, 9.53674e-05 uM ([1]; conc 9.53674e-5 uM): 101%
- viability at 72 h, 0.000190735 uM ([1]; conc 0.000190735 uM): 97.4%
- viability at 72 h, 0.00038147 uM ([1]; conc 0.00038147 uM): 96%
- viability at 72 h, 0.000762939 uM ([1]; conc 0.000762939 uM): 100%
- viability at 72 h, 0.00152588 uM ([1]; conc 0.00152588 uM): 97%
- viability at 72 h, 0.00305176 uM ([1]; conc 0.00305176 uM): 104%
- viability at 72 h, 0.00610352 uM ([1]; conc 0.00610352 uM): 105%
- viability at 72 h, 0.012207 uM ([1]; conc 0.012207 uM): 103%
- viability at 72 h, 0.0244141 uM ([1]; conc 0.0244141 uM): 103%
- viability at 72 h, 0.0488281 uM ([1]; conc 0.0488281 uM): 102%
- viability at 72 h, 0.0976562 uM ([1]; conc 0.0976562 uM): 107%
- viability at 72 h, 0.195312 uM ([1]; conc 0.195312 uM): 103%
- viability at 72 h, 0.390625 uM ([1]; conc 0.390625 uM): 109%
- viability at 72 h, 0.78125 uM ([1]; conc 0.78125 uM): 93.3%
- viability at 72 h, 1.5625 uM ([1]; conc 1.5625 uM): 99.9%
- viability at 72 h, 3.125 uM ([1]; conc 3.125 uM): 97.7%
- viability at 72 h, 6.25 uM ([1]; conc 6.25 uM): 97.3%
- viability at 72 h, 12.5 uM ([1]; conc 12.5 uM): 98%
- viability at 72 h, 25 uM ([1]; conc 25 uM): 84%
- viability at 72 h, 50 uM ([1]; conc 50 uM): 2.4%
- MESO1 viability (%) ([2]; conc 9.53674e-5 uM): 104.9%
- MESO1 viability (%) ([2]; conc 0.000190735 uM): 103.1% and 96.1%
- MESO1 viability (%) ([2]; conc 0.00038147 uM): 98.5% and 98.1%
- MESO1 viability (%) ([2]; conc 0.000762939 uM): 110.7% and 97.2%
- MESO1 viability (%) ([2]; conc 0.00152588 uM): 108.1% and 104.8%
- MESO1 viability (%) ([2]; conc 0.00305176 uM): 97.8% and 100.1%
- MESO1 viability (%) ([2]; conc 0.00610352 uM): 108.3% and 98.8%
- MESO1 viability (%) ([2]; conc 0.012207 uM): 101.9% and 99.1%
- MESO1 viability (%) ([2]; conc 0.0244141 uM): 104.7% and 100.7%
- MESO1 viability (%) ([2]; conc 0.0488281 uM): 104.5% and 103.1%
- MESO1 viability (%) ([2]; conc 0.0976562 uM): 98.7% and 102.0%
- MESO1 viability (%) ([2]; conc 0.195312 uM): 104.9% and 106.8%
- MESO1 viability (%) ([2]; conc 0.390625 uM): 97.6% and 96.8%
- MESO1 viability (%) ([2]; conc 0.78125 uM): 95.1% and 98.4%
- MESO1 viability (%) ([2]; conc 1.5625 uM): 99.0% and 101.9%
- MESO1 viability (%) ([2]; conc 3.125 uM): 94.6% and 96.8%
- MESO1 viability (%) ([2]; conc 6.25 uM): 96.9% and 103.3%
- MESO1 viability (%) ([2]; conc 12.5 uM): 98.9% and 92.4%
- MESO1 viability (%) ([2]; conc 25 uM): 86.3% and 80.9%
- MESO1 viability (%) ([2]; conc 50 uM): 1.2% and 1.3%
- Concentration at which cytotoxic activities were shown [3]: over 10 µM
- viability at 72 h, 9.53674e-05 uM ([4]; SKOV-3 cells (ovarian adenocarcinoma), conc 9.53674e-5 uM): 94.7%
- viability at 72 h, 0.000190735 uM ([4]; SKOV-3 cells (ovarian adenocarcinoma), conc 0.000190735 uM): 95.8%
- viability at 72 h, 0.00038147 uM ([4]; SKOV-3 cells (ovarian adenocarcinoma), conc 0.00038147 uM): 97.8%
- viability at 72 h, 0.000762939 uM ([4]; SKOV-3 cells (ovarian adenocarcinoma), conc 0.000762939 uM): 98.5%
- viability at 72 h, 0.00152588 uM ([4]; SKOV-3 cells (ovarian adenocarcinoma), conc 0.00152588 uM): 106%
- viability at 72 h, 0.00305176 uM ([4]; SKOV-3 cells (ovarian adenocarcinoma), conc 0.00305176 uM): 97%
- viability at 72 h, 0.00610352 uM ([4]; SKOV-3 cells (ovarian adenocarcinoma), conc 0.00610352 uM): 105%
- viability at 72 h, 0.012207 uM ([4]; SKOV-3 cells (ovarian adenocarcinoma), conc 0.012207 uM): 90.8%
- viability at 72 h, 0.0244141 uM ([4]; SKOV-3 cells (ovarian adenocarcinoma), conc 0.0244141 uM): 96.5%
- viability at 72 h, 0.0488281 uM ([4]; SKOV-3 cells (ovarian adenocarcinoma), conc 0.0488281 uM): 96.1%
- viability at 72 h, 0.0976562 uM ([4]; SKOV-3 cells (ovarian adenocarcinoma), conc 0.0976562 uM): 97.7%
- viability at 72 h, 0.195312 uM ([4]; SKOV-3 cells (ovarian adenocarcinoma), conc 0.195312 uM): 97.9%
- viability at 72 h, 0.390625 uM ([4]; SKOV-3 cells (ovarian adenocarcinoma), conc 0.390625 uM): 98.8%
- viability at 72 h, 12.5 uM ([4]; SKOV-3 cells (ovarian adenocarcinoma), conc 12.5 uM): 91.2%
- viability at 72 h, 25 uM ([4]; SKOV-3 cells (ovarian adenocarcinoma), conc 25 uM): 100%
- viability at 72 h, 50 uM ([4]; SKOV-3 cells (ovarian adenocarcinoma), conc 50 uM): 20.5%
- viability at 72 h, 0.78125 uM ([4]; SKOV-3 ovarian adenocarcinoma cells, conc 0.78125 uM): 93.9%
- viability at 72 h, 1.5625 uM ([4]; SKOV-3 ovarian adenocarcinoma cells, conc 1.5625 uM): 95.7%
- viability at 72 h, 3.125 uM ([4]; SKOV-3 ovarian adenocarcinoma cells, conc 3.125 uM): 102%
- viability at 72 h, 6.25 uM ([4]; SKOV-3 ovarian adenocarcinoma cells, conc 6.25 uM): 102%
- SKOV3 viability (%) ([5]; conc 9.53674e-5 uM): 102.9% and 98.3%
- SKOV3 viability (%) ([5]; conc 0.000190735 uM): 104.0% and 97.1%
- SKOV3 viability (%) ([5]; conc 0.00038147 uM): 97.2% and 104.3%
- SKOV3 viability (%) ([5]; conc 0.000762939 uM): 101.6% and 95.9%
- SKOV3 viability (%) ([5]; conc 0.00152588 uM): 101.4% and 101.1%
- SKOV3 viability (%) ([5]; conc 0.00305176 uM): 96.6% and 99.8%
- SKOV3 viability (%) ([5]; conc 0.00610352 uM): 102.9% and 97.3%
- SKOV3 viability (%) ([5]; conc 0.012207 uM): 93.7%
- SKOV3 viability (%) ([5]; conc 0.0244141 uM): 96.2% and 94.8%
- SKOV3 viability (%) ([5]; conc 0.0488281 uM): 100.2% and 102.5%
- SKOV3 viability (%) ([5]; conc 0.0976562 uM): 99.8% and 96.7%
- SKOV3 viability (%) ([5]; conc 0.195312 uM): 94.3% and 95.1%
- SKOV3 viability (%) ([5]; conc 0.390625 uM): 99.5% and 95.3%
- SKOV3 viability (%) ([5]; conc 0.78125 uM): 97.2%
- SKOV3 viability (%) ([5]; conc 1.5625 uM): 98.7% and 99.8%
- SKOV3 viability (%) ([5]; conc 3.125 uM): 98.6% and 90.6%
- SKOV3 viability (%) ([5]; conc 6.25 uM): 97.2% and 96.7%
- SKOV3 viability (%) ([5]; conc 12.5 uM): 95.5% and 90.7%
- SKOV3 viability (%) ([5]; conc 25 uM): 97.5%
- SKOV3 viability (%) ([5]; conc 50 uM): 21.5% and 18.1%
